We go through six molecules from US10894817B2, “Fatty acid modified urocortin-2 analogs for the treatment of diabetes and chronic kidney disease” (priority 2016, dated 2021).

Starred links: 1 amine or outer side, 2 acyl side, 3 side chain; linkers in the order of their positions; H or OH if unused. Non-standard residues stand in square brackets, D forms with d. Residues, ends and D or L forms follow the SMILES beside them. Groups on a side chain read outwards from the residue. *: point of attachment. C20 diacid = O=C(O)CCCCCCCCCCCCCCCCCCC(=O)*; γGlu = O=C(O)[C@H](CCC(=O)[*:2])N[*:1]; NMeI = CC[C@H](C)[C@H](NC)C(=O)O; AEEA = NCCOCCOCC(=O)O

This assay concerns the target T1, human CRHR2b (Homo sapiens, UniProt Q13324).
T1 construct: expressed in transfected cells; host or cells: Chinese Hamster Ovary (CHO) cells, transient transfection
T1 sequence (Q13324 1-438 isoform Q13324-2): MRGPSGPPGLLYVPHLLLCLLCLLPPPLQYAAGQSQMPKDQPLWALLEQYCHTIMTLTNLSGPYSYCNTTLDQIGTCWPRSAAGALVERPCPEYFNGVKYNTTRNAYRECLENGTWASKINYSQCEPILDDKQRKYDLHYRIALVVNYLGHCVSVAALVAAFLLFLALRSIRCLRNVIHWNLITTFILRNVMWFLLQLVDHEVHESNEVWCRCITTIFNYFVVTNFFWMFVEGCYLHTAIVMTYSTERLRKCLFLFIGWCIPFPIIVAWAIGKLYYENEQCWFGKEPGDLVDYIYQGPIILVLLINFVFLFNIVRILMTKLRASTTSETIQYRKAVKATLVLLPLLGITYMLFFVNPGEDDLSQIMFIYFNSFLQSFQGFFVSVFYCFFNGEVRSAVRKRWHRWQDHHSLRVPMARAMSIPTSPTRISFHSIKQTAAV
Put plainly: human CRHR2b cell-based cAMP assay. The following applies: cAMP assay; Table 26, compounds of Example 9; read-out: hCRHR2b Average EC50. In outline:
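ED50 values are means ± SEM over several runs, curve-fitted from cAMP in pmol, calibrated against unlabeled-cAMP standards. Detection was HTRF competition, ratio 665/620 nm, after 30 min agonist exposure at 37 °C.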
As to `CC[C@H](C)[C@H](NC)C(=O)N[C@H](C(=O)N[C@@H](CC(C)C)C(=O)N[C@@H](CO)C(=O)N[C@@H](CC(C)C)C(=O)N[C@@H](CC(=O)O)C(=O)N[C@H](C(=O)N1CCC[C@H]1C(=O)N[C@H](C(=O)NCC(=O)N[C@@H](CC(C)C)C(=O)N[C@@H](CC(C)C)C(=O)N[C@@H](CCC(N)=O)C(=O)N[C@H](C(=O)N[C@@H](CC(C)C)C(=O)N[C@@H](CC(C)C)C(=O)N[C@@H](CCC(=O)O)C(=O)N[C@@H](CCC(N)=O)C(=O)N[C@@H](CCC(=O)O)C(=O)N[C@@H](CCCCN)C(=O)N[C@@H](CCC(N)=O)C(=O)N[C@@H](CCC(=O)O)C(=O)N[C@@H](CCCCN)C(=O)N[C@@H](CCC(=O)O)C(=O)N[C@@H](CCCCN)C(=O)N[C@@H](CCC(N)=O)C(=O)N[C@@H](CCC(N)=O)C(=O)N[C@@H](C)C(=O)N[C@@H](CCCCNC(=O)CC[C@H](NC(=O)COCCOCCNC(=O)CC[C@H](NC(=O)CC[C@H](NC(=O)CCCCCCCCCCCCCCCCCCC(=O)O)C(=O)O)C(=O)O)C(=O)O)C(=O)N[C@@H](CCC(=O)O)C(=O)N[C@@H](CC(N)=O)C(=O)N[C@@H](C)C(=O)N[C@@H](CCC(=O)O)C(=O)N[C@H](C(=O)N[C@@H](CC(C)C)C(=O)N[C@@H](C)C(=O)N[C@@H](CCC(N)=O)C(=O)N[C@H](C(N)=O)C(C)C)[C@@H](C)CC)[C@@H](C)CC)[C@@H](C)CC)C(C)C)C(C)C` [Compound 59] (H-[NMeI]VLSLDVPIGLLQILLEQEKQEKEKQQAK([γGlu-AEEA-γGlu-γGlu-C20 diacid])ENAEILAQV-NH2), the EC50 was 2.62 nM.

With `CC[C@H](C)[C@H](NC)C(=O)N[C@H](C(=O)N[C@@H](CC(C)C)C(=O)N[C@@H](CO)C(=O)N[C@@H](CC(C)C)C(=O)N[C@@H](CC(=O)O)C(=O)N[C@H](C(=O)N1CCC[C@H]1C(=O)N[C@H](C(=O)NCC(=O)N[C@@H](CC(C)C)C(=O)N[C@@H](CC(C)C)C(=O)N[C@@H](CCC(N)=O)C(=O)N[C@H](C(=O)N[C@@H](CC(C)C)C(=O)N[C@@H](CC(C)C)C(=O)N[C@@H](CCC(=O)O)C(=O)N[C@@H](CCC(N)=O)C(=O)N[C@@H](CCC(=O)O)C(=O)N[C@@H](CCCCN)C(=O)N[C@@H](CCC(N)=O)C(=O)N[C@@H](CCC(=O)O)C(=O)N[C@@H](CCCCN)C(=O)N[C@@H](CCC(=O)O)C(=O)N[C@@H](CCCCN)C(=O)N[C@@H](CCC(N)=O)C(=O)N[C@@H](CCC(N)=O)C(=O)N[C@@H](C)C(=O)N[C@@H](CCCCNC(=O)CC[C@H](NC(=O)COCCOCCNC(=O)COCCOCCNC(=O)CC[C@H](NC(=O)CC[C@H](NC(=O)CCCCCCCCCCCCCCCCCCC(=O)O)C(=O)O)C(=O)O)C(=O)O)C(=O)N[C@H](C(=O)N[C@@H](CC(N)=O)C(=O)N[C@@H](C)C(=O)N[C@@H](CCC(N)=O)C(=O)N[C@H](C(=O)N[C@@H](CC(C)C)C(=O)N[C@@H](C)C(=O)N[C@@H](CCC(N)=O)C(=O)N[C@H](C(N)=O)C(C)C)[C@@H](C)CC)[C@@H](C)O)[C@@H](C)CC)[C@@H](C)CC)C(C)C)C(C)C` [Compound 60] (H-[NMeI]VLSLDVPIGLLQILLEQEKQEKEKQQAK([γGlu-AEEA-AEEA-γGlu-γGlu-C20 diacid])TNAQILAQV-NH2), the half-maximal effective concentration (EC50) was determined as 2.55 nM. Under `CC[C@H](C)[C@H](NC)C(=O)N[C@H](C(=O)N[C@@H](CC(C)C)C(=O)N[C@@H](CO)C(=O)N[C@@H](CC(C)C)C(=O)N[C@@H](CC(=O)O)C(=O)N[C@H](C(=O)N1CCC[C@H]1C(=O)N[C@H](C(=O)NCC(=O)N[C@@H](CC(C)C)C(=O)N[C@@H](CC(C)C)C(=O)N[C@@H](CCC(N)=O)C(=O)N[C@H](C(=O)N[C@@H](CC(C)C)C(=O)N[C@@H](CC(C)C)C(=O)N[C@@H](CCC(=O)O)C(=O)N[C@@H](CCC(N)=O)C(=O)N[C@@H](CCC(=O)O)C(=O)N[C@@H](CCCCN)C(=O)N[C@@H](CCC(N)=O)C(=O)N[C@@H](CCC(=O)O)C(=O)N[C@@H](CCCCN)C(=O)N[C@@H](CCC(=O)O)C(=O)N[C@@H](CCCCN)C(=O)N[C@@H](CCC(N)=O)C(=O)N[C@@H](CCC(N)=O)C(=O)N[C@@H](C)C(=O)N[C@@H](CCCCNC(=O)CC[C@H](NC(=O)COCCOCCNC(=O)CC[C@H](NC(=O)CC[C@H](NC(=O)CCCCCCCCCCCCCCCCCCC(=O)O)C(=O)O)C(=O)O)C(=O)O)C(=O)N[C@H](C(=O)N[C@@H](CC(N)=O)C(=O)N[C@@H](C)C(=O)N[C@@H](CCC(N)=O)C(=O)N[C@H](C(=O)N[C@@H](CC(C)C)C(=O)N[C@@H](C)C(=O)N[C@@H](CCC(N)=O)C(=O)N[C@H](C(N)=O)C(C)C)[C@@H](C)CC)[C@@H](C)O)[C@@H](C)CC)[C@@H](C)CC)C(C)C)C(C)C` [Compound 61] (H-[NMeI]VLSLDVPIGLLQILLEQEKQEKEKQQAK([γGlu-AEEA-γGlu-γGlu-C20 diacid])TNAQILAQV-NH2) stands 2.5 nM; under `CC[C@H](C)[C@H](NC)C(=O)N[C@H](C(=O)N[C@@H](CC(C)C)C(=O)N[C@@H](CO)C(=O)N[C@@H](CC(C)C)C(=O)N[C@@H](CC(=O)O)C(=O)N[C@H](C(=O)N1CCC[C@H]1C(=O)N[C@H](C(=O)NCC(=O)N[C@@H](CC(C)C)C(=O)N[C@@H](CC(C)C)C(=O)N[C@@H](CCC(N)=O)C(=O)N[C@H](C(=O)N[C@@H](CC(C)C)C(=O)N[C@@H](CC(C)C)C(=O)N[C@@H](CCC(=O)O)C(=O)N[C@@H](CCC(N)=O)C(=O)N[C@@H](CCC(=O)O)C(=O)N[C@@H](CCCCN)C(=O)N[C@@H](CCC(N)=O)C(=O)N[C@@H](CCC(=O)O)C(=O)N[C@@H](CCCCN)C(=O)N[C@@H](CCC(=O)O)C(=O)N[C@@H](CCCCN)C(=O)N[C@@H](CCC(N)=O)C(=O)N[C@@H](CCC(N)=O)C(=O)N[C@@H](C)C(=O)N[C@@H](CCCCNC(=O)CC[C@H](NC(=O)CC[C@H](NC(=O)COCCOCCNC(=O)COCCOCCNC(=O)CC[C@H](NC(=O)CC[C@H](NC(=O)CCCCCCCCCCCCCCCCCCC(=O)O)C(=O)O)C(=O)O)C(=O)O)C(=O)O)C(=O)N[C@H](C(=O)N[C@@H](CC(N)=O)C(=O)N[C@@H](C)C(=O)N[C@@H](CCC(N)=O)C(=O)N[C@H](C(=O)N[C@@H](CC(C)C)C(=O)N[C@@H](C)C(=O)N[C@@H](CCC(N)=O)C(=O)N[C@H](C(N)=O)C(C)C)[C@@H](C)CC)[C@@H](C)O)[C@@H](C)CC)[C@@H](C)CC)C(C)C)C(C)C` [Compound 62] (H-[NMeI]VLSLDVPIGLLQILLEQEKQEKEKQQAK([γGlu-γGlu-AEEA-AEEA-γGlu-γGlu-C20 diacid])TNAQILAQV-NH2), 4.5 nM. Under `CC[C@H](C)[C@H](NC)C(=O)N[C@H](C(=O)N[C@@H](CC(C)C)C(=O)N[C@@H](CO)C(=O)N[C@@H](CC(C)C)C(=O)N[C@@H](CC(=O)O)C(=O)N[C@H](C(=O)N1CCC[C@H]1C(=O)N[C@H](C(=O)NCC(=O)N[C@@H](CC(C)C)C(=O)N[C@@H](CC(C)C)C(=O)N[C@@H](CCC(N)=O)C(=O)N[C@H](C(=O)N[C@@H](CC(C)C)C(=O)N[C@@H](CC(C)C)C(=O)N[C@@H](CCC(=O)O)C(=O)N[C@@H](CCC(N)=O)C(=O)N[C@@H](CCC(=O)O)C(=O)N[C@@H](CCCCN)C(=O)N[C@@H](CCC(N)=O)C(=O)N[C@@H](CCC(=O)O)C(=O)N[C@@H](CCCCN)C(=O)N[C@@H](CCC(=O)O)C(=O)N[C@@H](CCCCN)C(=O)N[C@@H](CCC(N)=O)C(=O)N[C@@H](CCC(N)=O)C(=O)N[C@@H](C)C(=O)N[C@@H](CCCCNC(=O)CC[C@H](NC(=O)CC[C@H](NC(=O)COCCOCCNC(=O)CC[C@H](NC(=O)CC[C@H](NC(=O)CCCCCCCCCCCCCCCCCCC(=O)O)C(=O)O)C(=O)O)C(=O)O)C(=O)O)C(=O)N[C@H](C(=O)N[C@@H](CC(N)=O)C(=O)N[C@@H](C)C(=O)N[C@@H](CCC(N)=O)C(=O)N[C@H](C(=O)N[C@@H](CC(C)C)C(=O)N[C@@H](C)C(=O)N[C@@H](CCC(N)=O)C(=O)N[C@H](C(N)=O)C(C)C)[C@@H](C)CC)[C@@H](C)O)[C@@H](C)CC)[C@@H](C)CC)C(C)C)C(C)C` [Compound 63] (H-[NMeI]VLSLDVPIGLLQILLEQEKQEKEKQQAK([γGlu-γGlu-AEEA-γGlu-γGlu-C20 diacid])TNAQILAQV-NH2) stands 1.3 nM. Regarding `CC[C@H](C)[C@H](NC)C(=O)N[C@H](C(=O)N[C@@H](CC(C)C)C(=O)N[C@@H](CO)C(=O)N[C@@H](CC(C)C)C(=O)N[C@@H](CC(=O)O)C(=O)N[C@H](C(=O)N1CCC[C@H]1C(=O)N[C@H](C(=O)NCC(=O)N[C@@H](CC(C)C)C(=O)N[C@@H](CC(C)C)C(=O)N[C@@H](CCC(N)=O)C(=O)N[C@H](C(=O)N[C@@H](CC(C)C)C(=O)N[C@@H](CC(C)C)C(=O)N[C@@H](CCC(=O)O)C(=O)N[C@@H](CCC(N)=O)C(=O)N[C@@H](CCC(=O)O)C(=O)N[C@@H](CCCCN)C(=O)N[C@@H](CCC(N)=O)C(=O)N[C@@H](CCC(=O)O)C(=O)N[C@@H](CCCCN)C(=O)N[C@@H](CCC(=O)O)C(=O)N[C@@H](CCCCN)C(=O)N[C@@H](CCC(N)=O)C(=O)N[C@@H](CCC(N)=O)C(=O)N[C@@H](C)C(=O)N[C@@H](CCCCNC(=O)CC[C@H](NC(=O)CC[C@H](NC(=O)CC[C@H](NC(=O)CC[C@H](NC(=O)CCCCCCCCCCCCCCCCCCC(=O)O)C(=O)O)C(=O)O)C(=O)O)C(=O)O)C(=O)N[C@H](C(=O)N[C@@H](CC(N)=O)C(=O)N[C@@H](C)C(=O)N[C@@H](CCC(N)=O)C(=O)N[C@H](C(=O)N[C@@H](CC(C)C)C(=O)N[C@@H](C)C(=O)N[C@@H](CCC(N)=O)C(=O)N[C@H](C(N)=O)C(C)C)[C@@H](C)CC)[C@@H](C)O)[C@@H](C)CC)[C@@H](C)CC)C(C)C)C(C)C` [Compound 64] (H-[NMeI]VLSLDVPIGLLQILLEQEKQEKEKQQAK([γGlu-γGlu-γGlu-γGlu-C20 diacid])TNAQILAQV-NH2), the EC50 was 1.63 nM.
